Measurements from ChEMBL document CHEMBL1154793, “The lecanindoles, nonsteroidal progestins from the terrestrial fungus Verticillium lecanii 6144” (J Nat Prod, 2009).

Key:
Androgen receptor = biological target: T1, Androgen receptor (Homo sapiens, UniProt P10275); assay: Agonist activity at androgen receptor ligand binding domain expressed in african green monkey COS7 cells co-transfected with Gal4-DBD up to 10 uM by luciferase reporter gene assay; type: cell-based; conditions: cos-7
T1 sequence (P10275 whole entry): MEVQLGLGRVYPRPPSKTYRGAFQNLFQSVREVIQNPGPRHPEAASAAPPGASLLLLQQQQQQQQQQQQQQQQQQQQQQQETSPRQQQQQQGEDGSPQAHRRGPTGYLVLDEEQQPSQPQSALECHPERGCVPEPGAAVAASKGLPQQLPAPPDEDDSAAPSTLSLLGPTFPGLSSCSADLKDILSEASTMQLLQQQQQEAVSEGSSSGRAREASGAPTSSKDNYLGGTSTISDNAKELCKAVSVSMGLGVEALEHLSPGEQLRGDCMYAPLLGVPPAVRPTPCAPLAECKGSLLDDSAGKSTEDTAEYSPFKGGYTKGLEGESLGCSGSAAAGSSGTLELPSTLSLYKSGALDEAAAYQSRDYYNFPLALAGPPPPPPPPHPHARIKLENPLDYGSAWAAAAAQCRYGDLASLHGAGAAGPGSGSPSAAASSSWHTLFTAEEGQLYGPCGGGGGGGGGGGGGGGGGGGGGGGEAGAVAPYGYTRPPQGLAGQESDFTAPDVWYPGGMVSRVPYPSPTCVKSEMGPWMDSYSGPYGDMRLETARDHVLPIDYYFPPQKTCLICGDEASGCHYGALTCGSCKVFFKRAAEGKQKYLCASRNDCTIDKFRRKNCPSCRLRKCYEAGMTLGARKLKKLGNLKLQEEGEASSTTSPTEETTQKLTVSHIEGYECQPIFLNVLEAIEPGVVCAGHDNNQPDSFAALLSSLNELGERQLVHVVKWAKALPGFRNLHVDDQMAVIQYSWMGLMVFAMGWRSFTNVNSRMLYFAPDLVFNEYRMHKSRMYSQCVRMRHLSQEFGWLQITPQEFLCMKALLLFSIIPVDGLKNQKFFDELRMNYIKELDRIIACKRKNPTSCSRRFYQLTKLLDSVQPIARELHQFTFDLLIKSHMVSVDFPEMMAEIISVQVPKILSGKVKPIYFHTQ

Estrogen receptor beta [1] = biological target: T2, Estrogen receptor beta (Homo sapiens, UniProt Q92731); assay: Antagonist activity at estrogen receptor beta ligand binding domain expressed in african green monkey COS7 cells co-transfected with Gal4-LBD by luciferase reporter gene assay relative to control; type: cell-based; parameters: scale not given: the % may be the effect or the level left; conditions: COS-7
T2 sequence (Q92731 whole entry, the tested form may be a part): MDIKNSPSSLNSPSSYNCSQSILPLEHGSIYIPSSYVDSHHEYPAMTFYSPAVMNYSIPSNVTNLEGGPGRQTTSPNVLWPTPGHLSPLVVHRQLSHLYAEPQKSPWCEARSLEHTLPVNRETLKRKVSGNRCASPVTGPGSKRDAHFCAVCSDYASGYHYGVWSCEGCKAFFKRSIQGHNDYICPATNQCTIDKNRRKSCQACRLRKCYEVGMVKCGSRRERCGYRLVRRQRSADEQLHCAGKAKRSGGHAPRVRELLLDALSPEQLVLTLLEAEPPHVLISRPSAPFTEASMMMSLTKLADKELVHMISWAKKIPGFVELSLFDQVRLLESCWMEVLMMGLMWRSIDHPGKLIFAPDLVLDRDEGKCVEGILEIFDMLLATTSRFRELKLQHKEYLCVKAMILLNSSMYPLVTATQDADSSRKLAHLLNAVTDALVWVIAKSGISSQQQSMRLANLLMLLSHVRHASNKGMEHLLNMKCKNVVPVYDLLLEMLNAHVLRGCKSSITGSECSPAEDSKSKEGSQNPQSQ

Progesterone receptor = biological target: T3, Progesterone receptor (Homo sapiens, UniProt P06401)
T3 sequence (P06401 whole entry): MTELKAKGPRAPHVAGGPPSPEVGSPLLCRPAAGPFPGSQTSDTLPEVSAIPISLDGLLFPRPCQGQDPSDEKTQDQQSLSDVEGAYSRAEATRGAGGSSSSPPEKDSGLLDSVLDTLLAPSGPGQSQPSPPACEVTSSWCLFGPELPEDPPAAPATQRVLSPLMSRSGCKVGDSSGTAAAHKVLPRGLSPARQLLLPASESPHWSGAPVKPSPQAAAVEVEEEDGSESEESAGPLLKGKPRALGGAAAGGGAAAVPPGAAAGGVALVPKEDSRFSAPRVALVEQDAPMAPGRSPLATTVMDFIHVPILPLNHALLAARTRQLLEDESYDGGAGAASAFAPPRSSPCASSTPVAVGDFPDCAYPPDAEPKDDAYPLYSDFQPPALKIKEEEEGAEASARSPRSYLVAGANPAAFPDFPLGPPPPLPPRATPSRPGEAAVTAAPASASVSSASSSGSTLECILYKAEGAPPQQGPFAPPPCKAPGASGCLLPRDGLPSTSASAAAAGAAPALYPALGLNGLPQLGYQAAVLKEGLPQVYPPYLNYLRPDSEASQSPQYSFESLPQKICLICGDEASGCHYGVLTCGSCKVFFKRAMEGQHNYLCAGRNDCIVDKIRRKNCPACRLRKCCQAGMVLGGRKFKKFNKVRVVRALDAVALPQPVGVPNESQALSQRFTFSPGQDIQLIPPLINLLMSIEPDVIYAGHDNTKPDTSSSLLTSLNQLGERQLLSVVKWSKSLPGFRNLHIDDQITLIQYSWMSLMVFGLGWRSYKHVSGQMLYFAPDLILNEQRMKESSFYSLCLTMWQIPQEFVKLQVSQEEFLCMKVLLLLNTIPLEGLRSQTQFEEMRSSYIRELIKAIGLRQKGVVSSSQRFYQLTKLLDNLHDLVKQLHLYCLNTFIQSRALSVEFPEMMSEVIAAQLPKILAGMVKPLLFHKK

[2] = biological target: T4, Mineralocorticoid receptor (Homo sapiens, UniProt P08235)
T4 sequence (P08235 whole entry): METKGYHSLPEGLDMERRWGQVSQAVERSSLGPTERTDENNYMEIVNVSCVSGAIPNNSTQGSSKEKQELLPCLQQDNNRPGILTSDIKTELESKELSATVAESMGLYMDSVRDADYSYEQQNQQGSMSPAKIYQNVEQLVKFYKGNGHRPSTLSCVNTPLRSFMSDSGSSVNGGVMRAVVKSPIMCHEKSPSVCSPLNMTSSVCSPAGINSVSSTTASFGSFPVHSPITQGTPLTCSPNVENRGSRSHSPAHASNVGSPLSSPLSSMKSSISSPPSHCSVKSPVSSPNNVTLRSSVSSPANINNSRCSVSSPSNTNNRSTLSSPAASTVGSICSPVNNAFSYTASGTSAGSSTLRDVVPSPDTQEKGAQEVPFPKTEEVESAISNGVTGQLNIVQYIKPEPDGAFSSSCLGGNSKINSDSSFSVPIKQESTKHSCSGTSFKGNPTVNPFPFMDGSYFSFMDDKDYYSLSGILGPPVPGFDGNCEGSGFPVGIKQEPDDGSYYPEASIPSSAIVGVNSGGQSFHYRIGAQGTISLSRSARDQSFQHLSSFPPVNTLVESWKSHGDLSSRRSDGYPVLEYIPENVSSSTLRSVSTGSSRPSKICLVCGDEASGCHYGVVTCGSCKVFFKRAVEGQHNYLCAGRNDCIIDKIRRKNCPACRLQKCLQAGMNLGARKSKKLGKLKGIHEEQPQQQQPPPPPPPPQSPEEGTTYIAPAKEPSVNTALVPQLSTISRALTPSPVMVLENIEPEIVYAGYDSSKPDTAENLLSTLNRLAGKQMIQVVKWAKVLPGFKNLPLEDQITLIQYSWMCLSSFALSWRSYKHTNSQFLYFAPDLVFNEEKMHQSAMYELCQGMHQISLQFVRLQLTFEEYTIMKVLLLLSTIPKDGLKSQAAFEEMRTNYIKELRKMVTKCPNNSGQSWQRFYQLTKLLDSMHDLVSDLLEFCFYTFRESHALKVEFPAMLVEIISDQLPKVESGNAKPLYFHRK
Description: Antagonist activity at mineralocorticoid receptor ligand binding domain expressed in african green monkey COS7 cells co-transfected with Gal4-LBD by luciferase reporter gene assay

Estrogen receptor beta [3] = biological target: T2, Estrogen receptor beta

Q: What does the source list for `CC1(C)C(=O)CC[C@]2(C)[C@@]3(C)c4[nH]c5ccccc5c4C[C@@H]3CC[C@@]12O` [LECANINDOLE B]?
A: EC50 (Androgen receptor): Not Active; Activity (Estrogen receptor beta [1]): 12%; EC50 (Progesterone receptor): 0.0003 µM; IC50 [2]: > 10000 µM; IC50 (Estrogen receptor beta [3]): > 10 µM

Q: Which results are given for `CC1(C)[C@H](O)CC[C@]2(C)[C@@]3(C)c4[nH]c5ccccc5c4C[C@@H]3CC[C@@]12O` [LECANINDOLE D]?
A: EC50 (Androgen receptor): Not Active; Activity (Estrogen receptor beta [1]): 64%; EC50 (Progesterone receptor): 0.0011 µM; IC50 [2]: > 3000 µM; IC50 (Estrogen receptor beta [3]): > 3 µM
